Experimental data: patent EP0534511A1, “HIV protease inhibitors useful for the treatment of aids” (MERCK & CO. INC., priority 1991, dated 1993)
pIC50: −log10 of the molar value.

Molecular target: T1, HIV protease (Human immunodeficiency virus type 1 group M subtype B, UniProt P04585)
T1 construct: the protease expressed in Eschericia coli; made in house; host or cells: Escherichia coli
Experiment: Assay for Inhibition of Microbial Expressed Viral Protease
Format: biochemical
Conditions: protease expressed in Eschericia coli; peptide substrate Val-Ser-Gln-Asn-(betanapthyl)Ala-Pro-Ile-Val 0.5 mg/mL; 50 mM Na acetate, pH 5.5, 30°C, 1 hour; HPLC; read-out: IC₅₀
Experimental: Assay for Inhibition of Microbial Expressed Viral Protease
Inhibition studies of the reaction of the protease expressed in Eschericia coli with a peptide substrate [Val-Ser-Gln-Asn-(betanapthyl)Ala-Pro-Ile-Val, 0.5 mg/mL at the time the reaction is initiated] were in 50 mM Na acetate, pH 5.5, at 30°C for 1 hour. Various concentrations of inhibitor in 1.0 ul DMSO were added to 25 ul of the peptide solution in water. The reaction is initiated by the addition of 15 ul of 0.33 nM protease (0.11 ng) in a solution of 0.133 M Na acetate pH 5.5 and 0.26% bovine serum albumin. The reaction was quenched with 160 ul of 5% phosphoric acid. Products of the reaction were separated by HPLC (VYDAC wide pore 5 cm C-18 reverse phase, acetonitrile gradient, 0.1% phosphoric acid). The extent of inhibition of the reaction was determined from the peak heights of the products.

Row | SMILES | pIC50
1 | O=C(N[C@@H](CC1CCCCC1)[C@@H](O)C[C@@H](Cc1ccccc1)C(=O)N[C@H]1c2ccccc2C[C@H]1O)O[C@H]1CCOC1 [C, N-[(2R)-hydroxy-1(S)-indanyl]-5(S)-(3(S)-tetrahydrofuranyloxycarbonylamino)-4(S)-hydroxy-6-cyclohexyl-2(R)-phenylmethyl hexamamide] | 10.40
2 | CC(C)[C@H](C[C@H](O)[C@H](CC1CCCCC1)NC(=O)O[C@H]1CCOC1)C(=O)N[C@H]1c2ccccc2C[C@H]1O [A, N-[(2R)-hydroxy-1(S)-indanyl]-5(S)-(3(S)-tetrahydrofuranyloxycarbonylamino)-4(S)-hydroxy-6-cyclohexyl-2(R)-isopropyl hexanamide] | 9.43
